Assay results from US20230183219A1, “CONDENSED SUBSTITUTED HYDROPYRROLES AS ANTAGONISTS OF THE MUSCARINIC ACETYLCHOLINE RECEPTOR M4” (Vanderbilt University, priority 2020, published 2023).

Target: T1, Human M4 (Homo sapiens, UniProt P08173)
T1 construct: Human or rat M4 cDNA, along with the chimeric G protein Gqi5, were transfected into Chinese hamster ovary (CHO-K1) cells; expressed in transfected cells; host or cells: CHO-K1 (Chinese hamster ovary, ATCC), stably co-expressing Gqi5
T1 sequence (P08173 1-479): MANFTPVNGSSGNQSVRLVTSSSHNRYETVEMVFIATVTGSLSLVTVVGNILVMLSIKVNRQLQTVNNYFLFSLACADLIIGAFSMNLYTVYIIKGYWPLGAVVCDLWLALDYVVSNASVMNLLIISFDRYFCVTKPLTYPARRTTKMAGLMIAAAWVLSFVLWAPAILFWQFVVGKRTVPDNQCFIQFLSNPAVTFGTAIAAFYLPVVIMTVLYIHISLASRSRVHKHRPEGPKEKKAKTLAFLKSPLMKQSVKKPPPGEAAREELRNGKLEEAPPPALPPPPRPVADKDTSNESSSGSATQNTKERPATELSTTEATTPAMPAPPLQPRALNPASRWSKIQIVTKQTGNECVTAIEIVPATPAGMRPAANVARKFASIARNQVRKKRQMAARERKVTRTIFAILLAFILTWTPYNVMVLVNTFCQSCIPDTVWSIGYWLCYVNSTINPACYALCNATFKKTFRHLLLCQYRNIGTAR
Assay: mAChR M4 cell-based functional assay (calcium flux, decrease of EC80 acetylcholine response)
Conditions: for IC50: M4/Gqi5/CHO-K1 cells, decrease of response to EC80 acetylcholine; for remaining activity at 30 µM / Human M4 Emin: % ACh maximum at 30 μM; for remaining activity at 30 µM: read-out: Human M4 Emin
Experimental: Human or rat M4 cDNA, along with the chimeric G protein Gqi5, were transfected into Chinese hamster ovary (CHO-K1) cells purchased from the American Type Culture Collection using Lipofectamine2000. M4/Gqi5/CHO cells were grown in Ham's F-12 medium containing 10% heat-inactivated fetal bovine serum (FBS), 20 mM HEPES, 500 μg/mL G418 sulfate, and 200 μg/mL Hygromycin B.
For high throughput measurement of agonist-evoked increases in intracellular calcium, CHO-K1 cells stably expressing muscarinic receptors were plated in growth medium lacking G418 and hygromycin at 15,000 cells/20 μL/well in Greiner 384-well black-walled, tissue culture (TC)-treated, clear-bottom plates (VWR). Cells were incubated overnight at 37° C. and 5% CO2. The next day, cells were washed using an ELX 405 (BioTek) with assay buffer; the final volume was then aspirated to 20 μL. Next, 20 μL of a 2.3 μM stock of Fluo-4/acetoxymethyl ester (Invitrogen, Carlsbad, Calif.), prepared as a 2.3 mM stock in DMSO and mixed in a 1:1 ratio with 10% (w/v) Pluronic F-127 and diluted in assay buffer, was added to the wells and the cell plates were incubated for 50 min at 37° C. and 5% CO2. Dye was removed by washing with the ELX 405 and the final volume was aspirated to 20 μL. Compound master plates were formatted in a 10 point concentration-response curve (CRC) format (1:3 dilutions) in 100% DMSO with a starting concentration of 10 or 1 mM using a BRAVO liquid handler (Agilent). Test compound CRCs were then transferred to daughter plates (240 nL) using the Echo acoustic plate reformatter (Labcyte, Sunnyvale, Calif.) and then diluted into assay buffer (40 μL) to a 2×stock using a Thermo Fisher Combi (Thermo Fisher Scientific, Waltham, Mass.).
Calcium flux was measured using the Functional Drug Screening System (FDSS) 6000 or 7000 (Hamamatsu Corporation, Tokyo, Japan) as an increase in the fluorescent static ratio. Compounds were applied to cells (20 μL, 2×) using the automated system of the FDSS at 2 seconds into the protocol and the data were collected at 1 Hz. At 143 s, 10 μL of an EC20 concentration of the muscarinic receptor agonist acetylcholine was added (5×), followed by the addition of 12 μL of an EC80 concentration of acetylcholine at the 268 s time point (5×). Agonist activity was analyzed as a concentration-dependent increase in calcium mobilization upon compound addition. Positive allosteric modulator activity was analyzed as a concentration-dependent increase in the EC20 acetylcholine response. Antagonist activity was analyzed as a concentration-dependent decrease in the EC80 acetylcholine response; for the purposes of the tables herein, an IC50 (inhibitory concentration 50) was calculated as a concentration-dependent decrease of the response elicited by an EC80 concentration of acetylcholine. Concentration-response curves were generated using a four-parameter logistical equation in XLFit curve fitting software (IDBS, Bridgewater, N.J.) for Excel (Microsoft, Redmond, Wash.) or Prism (GraphPad Software, Inc., San Diego, Calif.) or the Dotmatics software platform (Dotmatics, Bishop's Stortford, UK).
Compounds were synthesized as described above. Activity (IC50 and Emin) was determined in the mAChR M4 cell-based functional assay as described above and the data are shown in Table 2.

Compound | IC50 [nM] | remaining activity at 30 µM [%] | Human M4 Emin [%]
Cc1c(-c2nnc(N(C)[C@H]3C[C@@H]4CN(CC5CCOCC5)C[C@@H]4C3)cc2C(F)(F)F)ccc2nn(C)cc12 [Example 7, (3aR,5s,6aS)—N-(6-(2,4-dimethyl-2H-indazol-5-yl)-5-(trifluoromethyl)pyridazin-3-yl)-N-(methyl-d3)-2-((tetrahydro-2H-pyran-4-yl)methyl)octahydrocyclopenta [c]pyrrol-5-amine] | 3670 |  | 
Cn1cnc2ccc(-c3cc(C(F)(F)F)c(N[C@H]4C[C@@H]5CN(CC6CCOCC6)C[C@@H]5C4)nn3)cc21 [Example 76, (3aR,5s,6aS)-N-(6-(1-methyl-1H-benzo[d]imidazol-6-yl)-4-(trifluoromethyl)pyridazin-3-yl)-2-((tetrahydro-2H-pyran-4-yl)methyl)octahydro-cyclopenta[c]pyrrol-5-amine] | 93.8 | 3 | 
FC(F)(F)c1cc(-c2ccc3ncsc3c2)nnc1N[C@H]1C[C@@H]2CN(CC3CCOCC3)C[C@@H]2C1 [Example 112, (3aR,5s,6aS)-N-(6-(benzo[d]thiazol-6-yl)-4-(trifluoromethyl)pyridazin-3-yl)-2-((tetrahydro-2H-pyran-4-yl)methyl)octahydro-cyclopenta[c]pyrrol-5-amine] | 8.9 | 3 | 
[2H]C([2H])(C1CCOCC1)N1C[C@H]2C[C@H](Nc3nnc(-c4ccc(F)cc4C)cc3C(F)(F)F)C[C@H]2C1 [Example 110, (3aR,5s,6aS)-N-(6-(4-fluoro-2-methylphenyl)-4-(trifluoromethyl)pyridazin-3-yl)-2-((tetrahydro-2H-pyran-4-yl)methyl-d2)octahydro-cyclopenta[c]pyrrol-5-amine] | 46.7 | 3 | 
Cc1ccc(F)cc1-c1cc(C(F)(F)F)c(O[C@H]2C[C@@H]3CN(CC4CCOCC4)C[C@@H]3C2)nn1 [Example 5, (3aR,5s,6aS)-5-((6-(5-fluoro-2-methylphenyl)-4-(trifluoromethyl)pyridazin-3-yl)oxy)-2-((tetrahydro-2H-pyran-4-yl)methyl)octahydrocyclopenta[c]pyrrole] | 1240 |  | 7
Fc1cccc(-c2cc(C(F)(F)F)c(N[C@H]3C[C@@H]4CN(CC5CCOCC5)C[C@@H]4C3)nn2)c1F [Example 81, (3aR,5s,6aS)-N-(6-(2,3-difluorophenyl)-4-(trifluoro-methyl)pyridazin-3-yl)-2-((tetrahydro-2H-pyran-4-yl)methyl)octahydro-cyclopenta[c]pyrrol-5-amine] | 178 | 3 | 
Cn1cc2cc(-c3nnc(N[C@H]4C[C@@H]5CN(CC6CCOCC6)C[C@@H]5C4)cc3C(F)(F)F)ccc2n1 [Example 1, (3aR,5s,6aS)—N-(6-(2-Methyl-2H-indazol-5-yl)-5-(trifluoromethyl)pyridazin-3-yl)-2-((tetrahydro-2H-pyran-4-yl)methyl)octahydrocyclopenta[c]pyrrol-5-amine] | 5.63 |  | 2
[2H]C([2H])(C1CCOCC1)N1C[C@H]2C[C@H](Nc3nnc(-c4cc(F)c(F)cc4F)cc3C(F)(F)F)C[C@H]2C1 [Example 125, (3aR,5s,6aS)-2-((tetrahydro-2H-pyran-4-yl)methyl-d2)-N-(4-(trifluoromethyl)-6-(2,4,5-trifluorophenyl)pyridazin-3-yl)octahydro-cyclopenta[c]pyrrol-5-amine] | 342 | 4 | 
Cc1cc(CN2C[C@H]3C[C@H](Nc4ncc(-c5cc(F)ccc5Cl)cn4)C[C@H]3C2)ccc1F [Example 9, (3aR,5s,6aS)-N-(5-(2-chloro-5-fluorophenyl)pyrimidin-2-yl)-2-(4-fluoro-3-methylbenzyl)octahydro-cyclopenta[c]pyrrol-5-amine] | > 10000 | 27 | 
Cn1cc2cc(-c3cc(C(F)(F)F)c(N[C@H]4C[C@@H]5CN(C[C@@H]6CC7CCC6O7)C[C@@H]5C4)nn3)ccc2n1 (stereo partly drawn) [Example 26, (3aR,5s,6aS)-2-(((2S)-7-oxabicyclo[2.2.1]heptan-2-yl)methyl)-N-(6-(2-methyl-2H-indazol-5-yl)-4-(trifluoromethyl)pyridazin-3-yl)octahydro-cyclopenta[c]pyrrol-5-amine] | 19.4 | 4 | 
Cc1cc(-c2cc(C(F)(F)F)c(N[C@H]3C[C@@H]4CN(CC5CCOCC5)C[C@@H]4C3)nn2)c(C)cc1F [Example 51, (3aR,5s,6aS)-N-(6-(4-fluoro-2,5-dimethylphenyl)-4-(trifluoromethyl)pyridazin-3-yl)-2-((tetrahydro-2H-pyran-4-yl)methyl)octahydro-cyclopenta[c]pyrrol-5-amine] | 242 | 3 | 
FC(F)(F)c1cc(N2CCOCC2)nnc1N[C@H]1C[C@@H]2CN(CC3CCOCC3)C[C@@H]2C1 [Example 143, (3aR,5s,6aS)-N-(6-morpholino-4-(trifluoromethyl)pyridazin-3-yl)-2-((tetrahydro-2H-pyran-4-yl)methyl)octahydro-cyclopenta[c]pyrrol-5-amine] | 35.1 | 2 | 
[2H]C([2H])(C1CCOCC1)N1C[C@H]2C[C@H](Nc3nnc(-c4cc(F)ccc4C(F)(F)F)cc3C(F)(F)F)C[C@H]2C1 [Example 99, (3aR,5s,6aS)-N-(6-(5-fluoro-2-(trifluoromethyl)phenyl)-4-(trifluoromethyl)pyridazin-3-yl)-2-((tetrahydro-2H-pyran-4-yl)methyl-d2)octahydro-cyclopenta[c]pyrrol-5-amine] | 54.7 | 2 | 
[2H]C([2H])(C1CCOCC1)N1C[C@H]2C[C@H](Nc3nnc(-c4cc(F)cc(F)c4F)cc3C(F)(F)F)C[C@H]2C1 [Example 124, (3aR,5s,6aS)-2-((tetrahydro-2H-pyran-4-yl)methyl-d2)-N-(4-(trifluoromethyl)-6-(2,3,5-trifluorophenyl)pyridazin-3-yl)octahydrocyclopenta[c]pyrrol-5-amine] | 173 | 3 | 
CN1Cc2cc(-c3cc(C(F)(F)F)c(N[C@H]4C[C@@H]5CN(CC6CCOCC6)C[C@@H]5C4)nn3)ccc2C1=O [Example 86, 2-methyl-5-(6-(((3aR,5s,6aS)-2-((tetrahydro-2H-pyran-4-yl)methyl)octahydro-cyclopenta[c]pyrrol-5-yl)amino)-5-(trifluoro-methyl)pyridazin-3-yl)isoindolin-1-one] | 200 | 4 | 
FC(F)(F)c1cc(-c2ccc3c(c2)CCO3)nnc1N[C@H]1C[C@@H]2CN(CC3CCOCC3)C[C@@H]2C1 [Example 88, (3aR,5s,6aS)-N-(6-(2,3-dihydrobenzofuran-5-yl)-4-(trifluoromethyl)pyridazin-3-yl)-2-((tetrahydro-2H-pyran-4-yl)methyl)octahydro-cyclopenta[c]pyrrol-5-amine] | 47.6 | 3 | 
